Assay results taken from patent US20140227311A1, “Method for Removing Immunosuppressive Properties of HIV Envelope Glycoproteins” (priority 2011, published 2014).
Ends that are not written are not given here.

Tested on: CTLL-2 cells
Format: cell-based
Details: dimerized peptides (disulfide); 24 h; wt effect at concentrations of 75 or 100 uM; FIG. 1

Sequence: LQARILAVERYLKDQQLLGIWGCGGEKEKEK (also: dimerized) [wt ISD, dimerized wild-type ISD peptide with GGEKEKEK tail]
- inhibition of the proliferation of CTLL2 cells: inhibits the proliferation of the CTLL2 cells at concentrations of 75 or 100 uM
